Assay results: patent publication US20240025892A1 (priority 2020, published 2024)
Read-outs that look alike come from different tables or passages of the source.

Experiments:
[1] = molecular target: Recombinant SIK2 (Homo sapiens (Human), UniProt Q9H0K1); assay: biochemical; conditions: recombinant SIK2 2.5 nM, 1 μM ATP; read-out: SIK2 IC50
Method: (§1) Assays were performed in base reaction buffer (20 mM Hepes (pH 7.5), 10 mM MgCl2, 1 mM EGTA, 0.02% Brij35, 0.02 mg/mL BSA, 0.1 mM Na3VO4, 2 mM DTT, 1% DMSO). Compounds were dissolved in 100% DMSO in a 10 mM stock. […] Assays were performed for 20 minutes at room temperature, after which time ^33P-ATP (10 μCi/μL) was added followed by incubation for another 120 minutes at room temperature. Thereafter, radioactivity incorporated into the pEY peptide substrate was detected by filter-binding method. Kinase activity data were expressed as the percent remaining kinase activity in test samples compared to DMSO reactions. IC50 values and curve fits were obtained using Prism (GraphPad Software).

[2] = molecular target: SIK3 (Homo sapiens (Human), UniProt Q9Y2K2); assay: In vitro SIK3 kinase assay; type: biochemical
Method: as §1

[3] = molecular target: SIK1 (Homo sapiens (Human), UniProt P57059); assay: In vitro SIK1 kinase assay; type: biochemical
Method: as §1

[4] = molecular target: NanoLuc-SIK2 fusion in HEK293 cells (Homo sapiens (Human), UniProt Q9H0K1); assay: cell-based
Method: Assays were performed at Reaction Biology Corporation (Malvern, PA) in HEK293 cells from ATCC in 384 well plate format using Promega's NanoBRET TE intracellular kinase assay platform. HEK293 cells transiently expressing NanoLuc-SIK2 fusion vector were seeded into 384 well plates. Cells were pre-treated with the NanoBRET Tracer K-4 and then treated with compounds for 60 minutes in 10 point dose response format. […] IC50 values were calculated and IC50 curves were plotted using the GraphPad Prism 4 program on a sigmoidal dose response equation.

[5] = system: CRTC2 (TORC2); assay: CRTC2 nuclear translocation (PathHunter U2OS); type: cell-based; conditions: maximal CRTC2 nuclear translocation, U2OS cells, 90 minutes, maximum dose 10 μM
Excerpt: PathHunter® Nuclear Translocation cell lines are engineered to co-express two fusion proteins: a) Enzyme Donor (ED) tagged target protein; b) an Enzyme Acceptor (EA) tagged TAZ domain, derived from the CBP/P300 transcription factor, that localizes to the nucleus. Activation of the signaling pathway induces translocation of the ED-tagged target protein into the nucleus, which will force complementation of the two enzyme fragments, and result in the formation of a functional enzyme that will hydrolyze substrate and generate a chemiluminescent signal. U2OS CRTC2 (TORC2) translocation assays were performed in 384 well plates at Eurofins DiscoverX (Freemont, CA). Cells were treated with compounds for 90 minutes in experimental duplicates in 5 point dose response format (4-fold serial dilutions with a maximum dose of 10 μM) followed by […] readout on an Envision 2104 Multilabel Reader. In all experiments, forskolin was used as a positive control and maximal CRTC2 nuclear translocation induced by each compound is expressed as a percentage of the signal stimulated by forskolin.
Representative data are shown in FIG. 4A and presented as percent of the positive control (forskolin) signal.

[6] = system: RANKL; assay: RANKL gene expression in Ocy454 cells (RT-qPCR); conditions: maximal RANKL fold induction versus DMSO, four hours;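 further: Ocy454 cells moved to 37 °C for osteocytic differentiation before compound exposure, RANKL mRNA by SYBR Green qRT-PCR, 2^−ΔΔCT with β-actin normalization, duplicate wells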
[7] = HEK293 cells, compounds for 60 minutes, read-out: SIK2 NanoBRET

Chain of SIK3 (Q9Y2K2 whole entry): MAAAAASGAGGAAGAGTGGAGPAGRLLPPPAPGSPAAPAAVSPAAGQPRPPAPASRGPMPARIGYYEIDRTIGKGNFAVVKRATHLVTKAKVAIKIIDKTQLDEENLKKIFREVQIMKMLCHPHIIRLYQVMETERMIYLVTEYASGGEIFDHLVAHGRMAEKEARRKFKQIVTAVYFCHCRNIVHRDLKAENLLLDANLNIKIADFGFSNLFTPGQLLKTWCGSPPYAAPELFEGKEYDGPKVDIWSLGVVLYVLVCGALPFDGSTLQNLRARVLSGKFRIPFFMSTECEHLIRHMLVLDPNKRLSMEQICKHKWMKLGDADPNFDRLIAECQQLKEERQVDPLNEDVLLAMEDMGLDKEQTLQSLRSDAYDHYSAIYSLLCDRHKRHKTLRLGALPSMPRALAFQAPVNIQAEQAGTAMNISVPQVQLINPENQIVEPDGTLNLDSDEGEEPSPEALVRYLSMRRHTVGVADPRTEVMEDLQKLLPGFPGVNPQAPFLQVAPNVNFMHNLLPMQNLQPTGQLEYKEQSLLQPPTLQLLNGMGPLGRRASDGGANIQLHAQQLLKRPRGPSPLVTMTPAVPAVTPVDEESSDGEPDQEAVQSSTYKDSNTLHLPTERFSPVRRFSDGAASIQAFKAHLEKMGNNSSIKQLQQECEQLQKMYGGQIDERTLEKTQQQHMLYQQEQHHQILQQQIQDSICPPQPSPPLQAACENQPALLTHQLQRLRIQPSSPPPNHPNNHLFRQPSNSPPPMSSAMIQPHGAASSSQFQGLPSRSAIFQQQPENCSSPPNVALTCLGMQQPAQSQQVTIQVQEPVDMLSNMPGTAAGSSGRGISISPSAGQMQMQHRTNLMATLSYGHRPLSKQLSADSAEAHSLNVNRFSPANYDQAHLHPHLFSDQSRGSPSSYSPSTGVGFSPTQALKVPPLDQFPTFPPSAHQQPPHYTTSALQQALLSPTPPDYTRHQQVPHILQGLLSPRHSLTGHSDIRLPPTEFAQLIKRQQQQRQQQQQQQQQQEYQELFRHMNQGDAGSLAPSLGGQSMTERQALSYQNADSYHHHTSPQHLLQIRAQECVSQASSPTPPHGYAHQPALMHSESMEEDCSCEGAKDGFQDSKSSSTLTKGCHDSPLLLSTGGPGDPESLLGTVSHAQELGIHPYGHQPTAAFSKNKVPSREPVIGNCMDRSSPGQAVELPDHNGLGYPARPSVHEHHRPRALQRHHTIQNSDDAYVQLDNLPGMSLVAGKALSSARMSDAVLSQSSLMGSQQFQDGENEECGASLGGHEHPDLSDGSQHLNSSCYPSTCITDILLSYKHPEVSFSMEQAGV
Chain of SIK1 (P57059 whole entry): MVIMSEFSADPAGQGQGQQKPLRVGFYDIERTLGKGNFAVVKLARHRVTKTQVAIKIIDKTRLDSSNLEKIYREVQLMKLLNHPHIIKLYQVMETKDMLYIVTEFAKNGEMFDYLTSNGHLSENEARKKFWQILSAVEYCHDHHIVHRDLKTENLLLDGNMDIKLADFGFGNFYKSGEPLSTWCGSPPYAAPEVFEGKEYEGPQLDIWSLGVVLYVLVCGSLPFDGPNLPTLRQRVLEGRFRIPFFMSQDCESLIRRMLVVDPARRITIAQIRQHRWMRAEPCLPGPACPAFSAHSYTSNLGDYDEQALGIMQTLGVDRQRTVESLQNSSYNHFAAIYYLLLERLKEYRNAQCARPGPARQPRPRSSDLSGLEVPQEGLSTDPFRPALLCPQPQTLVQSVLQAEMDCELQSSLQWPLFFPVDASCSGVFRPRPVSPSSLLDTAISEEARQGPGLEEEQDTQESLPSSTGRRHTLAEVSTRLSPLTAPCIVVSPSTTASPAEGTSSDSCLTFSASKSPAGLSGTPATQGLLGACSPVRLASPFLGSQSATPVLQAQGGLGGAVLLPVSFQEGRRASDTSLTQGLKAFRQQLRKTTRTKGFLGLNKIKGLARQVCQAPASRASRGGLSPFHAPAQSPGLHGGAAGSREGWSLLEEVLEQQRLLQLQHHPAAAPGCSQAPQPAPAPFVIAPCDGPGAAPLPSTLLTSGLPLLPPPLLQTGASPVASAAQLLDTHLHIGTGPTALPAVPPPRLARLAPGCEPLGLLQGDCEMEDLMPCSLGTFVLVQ
Chain of NanoLuc-SIK2 fusion in HEK293 cells (Q9H0K1 whole entry, the tested form may be a part): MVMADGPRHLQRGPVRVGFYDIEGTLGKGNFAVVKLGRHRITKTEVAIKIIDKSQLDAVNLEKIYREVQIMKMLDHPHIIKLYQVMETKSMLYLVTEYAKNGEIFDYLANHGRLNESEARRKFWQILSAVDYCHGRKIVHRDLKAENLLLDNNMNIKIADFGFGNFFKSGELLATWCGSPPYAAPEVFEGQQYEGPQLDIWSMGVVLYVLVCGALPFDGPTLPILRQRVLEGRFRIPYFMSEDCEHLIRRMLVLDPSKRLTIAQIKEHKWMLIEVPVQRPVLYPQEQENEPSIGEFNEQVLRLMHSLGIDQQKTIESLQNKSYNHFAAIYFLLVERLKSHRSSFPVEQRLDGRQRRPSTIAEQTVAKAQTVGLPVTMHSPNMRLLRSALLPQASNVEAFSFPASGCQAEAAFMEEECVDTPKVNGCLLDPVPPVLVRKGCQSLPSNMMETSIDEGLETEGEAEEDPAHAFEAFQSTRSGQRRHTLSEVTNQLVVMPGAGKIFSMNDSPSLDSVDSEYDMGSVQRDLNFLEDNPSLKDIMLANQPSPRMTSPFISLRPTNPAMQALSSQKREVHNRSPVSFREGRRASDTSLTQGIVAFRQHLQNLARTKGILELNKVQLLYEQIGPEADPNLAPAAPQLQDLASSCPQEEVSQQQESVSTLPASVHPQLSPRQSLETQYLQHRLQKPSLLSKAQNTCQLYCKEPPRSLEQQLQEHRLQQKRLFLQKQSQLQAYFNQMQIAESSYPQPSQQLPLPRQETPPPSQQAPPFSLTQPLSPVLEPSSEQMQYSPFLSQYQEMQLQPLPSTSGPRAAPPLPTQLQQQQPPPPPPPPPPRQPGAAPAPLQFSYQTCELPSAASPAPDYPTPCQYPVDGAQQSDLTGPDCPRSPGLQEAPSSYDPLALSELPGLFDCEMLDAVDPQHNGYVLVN
Chain of Recombinant SIK2 (Q9H0K1 whole entry): as the sequence (Q9H0K1 whole entry, the tested form may be a part) above

Row | SMILES | IC50 [1] [nM] | IC50 [2] [nM] | IC50 [3] [nM] | IC50 [4, 7] [nM] | CRTC2 Efficacy (% of forskolin) [5] | RANKL Fold Induction [6] [fold] | IC50 [4] [nM]
1 | N#Cc1ccc(-c2cnc3cc(C(=O)NCc4nc5ccccc5[nH]4)ccn23)cc1 [Example 22, N-((1H-benzo[d]imidazol-2-yl)methyl)-3-(4-cyanophenyl)imidazo[1,2-a]pyridine-7-carboxamide] | 5.58 | 497 | 13000 | 117 | 12.9 % of forskolin | 1.19 | –
2 | N#Cc1ccc(-n2cnc3cc(C(=O)NCc4cn5ccccc5n4)ccc32)cc1 [Example 33, 1-(4-cyanophenyl)-N-(imidazo[1,2-a]pyridin-2-ylmethyl)-1H-benzo[d]imidazole-5-carboxamide] | 14.2 | 2550 | 5420 | 44.8 | 21.7 % of forskolin | 0.92 | –
3 | N#Cc1ccc(-c2cnc3cc(-c4cnn(C5CC5)c4)ccn23)cc1 [Example 49, 4-(7-(1-cyclopropyl-1H-pyrazol-4-yl)imidazo[1,2-a]pyridin-3-yl)benzonitrile] | 0.101 | 1.43 | 2.16 | 1.36 | 92.2 % of forskolin | 6.31 | –
4 | N#Cc1ccc(-c2cnn3cc(C(=O)NCc4nc5cccnc5[nH]4)ccc23)cc1 [Example 35, 3-(4-Cyanophenyl)-N-(3H-imidazo[4,5-b]pyridin-2-ylmethyl)pyrazolo[1,5-a]pyridine-6-carboxamide] | 7.55 | 103 | 2090 | – | 8.9 % of forskolin | 0.39 | 93.2
5 | CN1CCOCC12CCN(c1cccc3ccc(-n4cnc5cc(OCC6(C)COC6)ccc54)nc13)CC2 [Example 10, 1-Methyl-9-[2-[5-[(3-methyloxetan-3-yl)methoxy]benzimidazol-1-yl]-8-quinolyl]-4-oxa-1,9-diazaspiro[5.5]undecane] | 2.11 | 3.71 | 37.8 | – | 75.8 % of forskolin | 58.64 | –
6 | COc1ccc(OC)c(-c2cnc3cc(C(=O)NCc4cccnc4)ccn23)c1 [Example 31, 3-(2,5-dimethoxyphenyl)-N-(3-pyridylmethyl)imidazo[1,2-a]pyridine-7-carboxamide] | – | 76.1 | 409 | – | 31.2 % of forskolin | 0.90 | 4020
7 | CC1(COc2ccc3c(c2)ncn3-c2ccc3cccc(N4CC(N)C4)c3n2)COC1 [Example 7, 1-(2-(5-((3-methyloxetan-3-yl)methoxy)-1H-benzo[d]imidazol-1-yl)quinolin-8-yl)azetidin-3-amine] | 8.35 | 11.5 | 138 | 43.2 | 89 % of forskolin | 30.37 | –
8 | CC1(COc2ccc3c(c2)ncn3-c2ccc3cccc(N4CCC5(CCN5)CC4)c3n2)COC1 [Example 3, 2-(5-((3-methyloxetan-3-yl)methoxy)-1H-benzo[d]imidazol-1-yl)-8-(1,7-diazaspiro[3.5]nonan-7-yl)quinoline] | 0.979 | 2.24 | 18.4 | 8.86 | 88.5 % of forskolin | 57.08 | –
9 | CCn1cc(-c2ccn3c(-c4ccc(-c5nnc(C)o5)cc4)cnc3c2)cn1 [Example 56, 2-(4-(7-(1-ethyl-1H-pyrazol-4-yl)imidazo[1,2-a]pyridin-3-yl)phenyl)-5-methyl-1,3,4-oxadiazole] | 533 | 617 | 3120 | – | 4.9 % of forskolin | 2.18 | –
10 | COc1cc(-c2cnc3cc(C(=O)NCc4ccc(C)nc4)ccn23)cc(OC)c1C(=O)NCC(F)(F)F [Example 68, 3-[3,5-Dimethoxy-4-(2,2,2-trifluoroethylcarbamoyl)phenyl]-N-[(6-methyl-3-pyridyl)methyl]imidazo[1,2-a]pyridine-7-carboxamide] | 12.4 | 8.67 | 94.7 | – | 12 % of forskolin | 2.88 | –
11 | COCCN1CCC12CCN(c1cccc3ccc(-n4cnc5cc(OCC6(C)COC6)ccc54)nc13)CC2 [Example 12, 8-[1-(2-Methoxyethyl)-1,7-diazaspiro[3.5]nonan-7-yl]-2-[5-[(3-methyloxetan-3-yl)methoxy]benzimidazol-1-yl]quinoline] | 4.9 | 11.9 | 140 | – | 37.6 % of forskolin | 62.52 | 925
12 | CCn1cc(-c2ccc3c(-c4ccc(C#N)cc4)cnn3c2)cn1 [Example 52, 4-[6-(1-Ethylpyrazol-4-yl)pyrazolo[1,5-a]pyridin-3-yl]benzonitrile] | 1.11 | 1.64 | 4.77 | – | 77 % of forskolin | 19.99 | –
13 | CCc1nnc(-c2ccc(-c3cnc4cc(-c5cnn(C)c5)ccn34)cc2OC)o1 [Example 57, 2-ethyl-5-(2-methoxy-4-(7-(1-methyl-1H-pyrazol-4-yl)imidazo[1,2-a]pyridin-3-yl)phenyl)-1,3,4-oxadiazole] | 8.76 | 11 | 90.8 | 90.8 | – | 13.68 | –
14 | CN1CC(c2cccc3ccc(-n4cnc5cc(OCC6(C)COC6)ccc54)nc23)C1 [Example 15, 8-(1-Methylazetidin-3-yl)-2-(5-((3-methyloxetan-3-yl)methoxy)-1H-benzo[d]imidazol-1-yl)quinoline] | 1.91 | 1.12 | 4.37 | – | 63.5 % of forskolin | 88.34 | –
15 | N#Cc1ccc(-c2cnc3cc(C(=O)NCc4nc5ccncc5[nH]4)ccn23)cc1 [Example 25, N-((3H-imidazo[4,5-c]pyridin-2-yl)methyl)-3-(4-cyanophenyl)imidazo[1,2-a]pyridine-7-carboxamide] | 9.74 | 1190 | 5450 | – | 1.6 % of forskolin | 1.10 | –
16 | CCc1nc(-c2c(OC)cc(-c3cnc4cc(-c5cnn(C)c5)ccn34)cc2OC)no1 [Example 61, 3-[2,6-Dimethoxy-4-[7-(1-methylpyrazol-4-yl)imidazo[1,2-a]pyridin-3-yl]phenyl]-5-ethyl-1,2,4-oxadiazole] | 3.07 | 8.25 | 37.8 | – | 76.9 % of forskolin | 19.00 | –
17 | N#Cc1ccc(-c2cnn3cc(C(=O)NCc4cccnc4)ccc23)cc1 [Example 37, 3-(4-Cyanophenyl)-N-(3-pyridylmethyl)pyrazolo[1,5-a]pyridine-6-carboxamide] | 32.5 | 310 | 775 | 116 | 40.6 % of forskolin | 1.17 | –
18 | N#Cc1ccc(-c2cnc3cc(C(=O)NCc4cn5ccccc5n4)ccn23)cc1 [Example 24, 3-(4-cyanophenyl)-N-(imidazo[1,2-a]pyridin-2-ylmethyl)imidazo[1,2-a]pyridine-7-carboxamide] | 11.4 | 835 | 12500 | 42.1 | 21.2 % of forskolin | 2.24 | –
